In patent US20170303554A1, “METHOD OF SANITIZING EDIBLE SEEDS, PARTICULARLY MUCILAGE PRODUCING SEEDS” (AGRI-NEO INC., priority 2014, published 2017):

Tests used:
[1] = tested on: Total count Aerobic bacteria; assay: Total aerobic count on seeds, grains and spices sprayed with sanitizing solutions (Example 1); format: cell-based; details: for bactericidal effect, conclusion in words: 40 L per 1 tonne
Procedure: (§1) Seeds were mechanically cleaned and spread in stainless steel containers. Each 100 grams seeds were sprayed with 4 ml total solutions descried above via conventional trigger vaporizer. This solution is equivalent to 40 L disinfecting solution total sprayed on 1-tonne seeds. Seeds, grains and spices were selected to represent all families and types of seeds, grains and spices. Another criterium was to select seeds and grains contaminated with a high count of total aerobic bacteria, yeast, mold, E. coli, Salmonella sp. and other pathogenic microorganisms.
(§2) Seeds, grains and spices treated were: • Whole dried pea, • Split pea dried, • Pea fiber, • Vanilla, • Chia, • Sprouted flax and chia, • Flax, • Hemp, and • Black pepper seeds

Y&M (yeast and mold) = assay: Yeast and mold (Y&M) count on sprayed seeds, grains and spices (Example 1); format: cell-based; details: 40 L/tonne; for Y&M, Av: average; for Y&M, n1: replicate n1; for Y&M, n2: replicate n2
Procedure: as §1, §2

CCO [2- Alcohol - ethanol, ethanol]
synergistic with peracetic acid: effect when combined with peracetic acid formulations (synergy), in words ([1]; black pepper) | effect when combined with peracetic acid formulations (synergy), in words ([1]; hemp) | effect when combined with peracetic acid formulations (synergy), in words ([1]; pea fiber) | effect when combined with peracetic acid formulations (synergy), in words ([1]; split pea) | effect when combined with peracetic acid formulations (synergy), in words ([1]; vanilla) | effect when combined with peracetic acid formulations (synergy), in words ([1]; whole dried pea)
not a strong bactericidal agent: bactericidal effect, conclusion in words ([1]; black pepper) | bactericidal effect, conclusion in words ([1]; hemp) | bactericidal effect, conclusion in words ([1]; pea fiber) | bactericidal effect, conclusion in words ([1]; split pea) | bactericidal effect, conclusion in words ([1]; vanilla) | bactericidal effect, conclusion in words ([1]; whole dried pea)
bactericidal agent but not very strong: bactericidal effect, conclusion in words ([1]; sprouted flax and chia)
n1, n2 not detected: Y&M, n1 (Y&M (yeast and mold); pea fiber) | Y&M, n2 (Y&M (yeast and mold); pea fiber) | Y&M, n1 (Y&M (yeast and mold); whole dried pea) | Y&M, n2 (Y&M (yeast and mold); whole dried pea) | Y&M, n1 (Y&M (yeast and mold); whole split pea) | Y&M, n2 (Y&M (yeast and mold); whole split pea)
Y&M not detected: Y&M, Av (Y&M (yeast and mold); pea fiber) | Y&M, Av (Y&M (yeast and mold); whole dried pea) | Y&M, Av (Y&M (yeast and mold); whole split pea)

CC(=O)OO [Peracetic acid]
strong bactericidal agent: bactericidal effect, conclusion in words ([1]; black pepper) | bactericidal effect, conclusion in words ([1]; hemp) | bactericidal effect, conclusion in words ([1]; pea fiber) | bactericidal effect, conclusion in words ([1]; split pea) | bactericidal effect, conclusion in words ([1]; vanilla) | bactericidal effect, conclusion in words ([1]; whole dried pea)
